Results: the supplement of paper PMC10307832

What was measured:
Assay in all cases: relative viability (nuclei count vs DMSO), 5 days (fraction); higher = more cells survive
[1] = compound: C1=CC2=NC=CN=C2C=C1/C=C/3\C(=O)NC(=O)S3 + CC(=O)c1c(C)c2cnc(Nc3ccc(N4CCNCC4)cn3)nc2n(C2CCCC2)c1=O [Palbociclib] (partner 0.5 µM)
Summary of the method: (§1)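 Lung cancer cell lines were seeded in 1536-well plates and dosed by pin tool the next day, with either a single drug or a fixed anchor-drug dose combined with five library-drug doses (not always all listed) spaced in √10 steps. Five days later, one step fixed the cells and stained their nuclei (final 0.05% Triton X-100, 1% formaldehyde, 1 ug/ml Hoechst), and nuclei were counted on 4× images. Relative viability is the nuclei count in treated wells divided by the count in vehicle wells, and each value is the median of duplicate plates.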

BGJ398 + Bortezomib = compound: CCN1CCN(c2ccc(Nc3cc(N(C)C(=O)Nc4c(Cl)c(OC)cc(OC)c4Cl)ncn3)cc2)CC1 [BGJ398] + CC(C)C[C@H](NC(=O)[C@H](Cc1ccccc1)NC(=O)c1cnccn1)B(O)O [Bortezomib] (partner 0.002 µM)
Summary of the method: as §1

[2] = compound: C1=CC2=NC=CN=C2C=C1/C=C/3\C(=O)NC(=O)S3 + C[C@@H](Oc1cc(-c2cnn(C3CCNCC3)c2)cnc1N)c1c(Cl)ccc(F)c1Cl [Crizotinib] (partner 1 µM)
Summary of the method: as §1

BGJ398 + Vorinostat = compound: CCN1CCN(c2ccc(Nc3cc(N(C)C(=O)Nc4c(Cl)c(OC)cc(OC)c4Cl)ncn3)cc2)CC1 [BGJ398] + O=C(CCCCCCC(=O)Nc1ccccc1)NO [Vorinostat] (partner 1 µM)
Summary of the method: as §1

Row | Cell Line | relative viability ([1]; first compound 0.02 µM) | relative viability ([1]; first compound 0.06325 µM) | relative viability ([1]; first compound 0.2 µM) | relative viability ([1]; first compound 0.6325 µM) | relative viability ([1]; first compound 2 µM) | relative viability (BGJ398 + Bortezomib; first compound 0.01 µM) | relative viability (BGJ398 + Bortezomib; first compound 0.03162 µM) | relative viability (BGJ398 + Bortezomib; first compound 0.1 µM) | relative viability (BGJ398 + Bortezomib; first compound 0.3162 µM) | relative viability (BGJ398 + Bortezomib; first compound 1 µM) | relative viability ([2]; first compound 0.02 µM) | relative viability ([2]; first compound 0.06325 µM) | relative viability ([2]; first compound 0.2 µM) | relative viability ([2]; first compound 0.6325 µM) | relative viability ([2]; first compound 2 µM) | relative viability (BGJ398 + Vorinostat; first compound 0.01 µM) | relative viability (BGJ398 + Vorinostat; first compound 0.03162 µM) | relative viability (BGJ398 + Vorinostat; first compound 0.1 µM) | relative viability (BGJ398 + Vorinostat; first compound 0.3162 µM) | relative viability (BGJ398 + Vorinostat; first compound 1 µM)
1 | 201T | 0.341 | 0.347 | 0.349 | 0.358 | 0.343 | 1.24 | 1.08 | 1.11 | 1.07 | 1.04 | 0.995 | 1.07 | 1.06 | 0.994 | 1.06 | 1.2 | 0.947 | 0.949 | 0.929 | 0.885
2 | A549 | – | – | – | – | – | – | – | – | – | – | 0.791 | 0.901 | 0.782 | 0.671 | 0.646 | – | – | – | – | –
3 | A-427 | 0.498 | 0.561 | 0.507 | 0.524 | 0.533 | 0.984 | 0.991 | 1.12 | 0.774 | 0.743 | 0.848 | 0.792 | 0.939 | 0.866 | 0.843 | 0.909 | 0.953 | 0.895 | 0.698 | 0.713
4 | ABC-1 | 0.75 | 0.699 | 0.726 | 0.662 | 0.645 | 0.306 | 0.34 | 0.287 | 0.321 | 0.299 | 1.15 | 1.05 | 1.21 | 0.91 | 1.09 | 1.61 | 0.855 | 1.04 | – | 0.937
5 | BEN | 0.491 | 0.422 | 0.492 | 0.475 | 0.448 | 0.719 | 0.976 | 0.715 | 0.656 | 0.619 | 0.948 | 0.856 | 0.929 | 0.795 | 0.871 | 0.533 | 0.557 | 0.594 | 0.553 | 0.544
6 | CAL-12T | 0.394 | 0.664 | 0.454 | 0.48 | 0.403 | 0.954 | 0.852 | 0.996 | 0.943 | 0.837 | 0.572 | 0.802 | 0.901 | 0.661 | 0.683 | 0.666 | 1.08 | 0.703 | 0.895 | 0.941
7 | COR-L23 | 0.276 | 0.281 | 0.295 | 0.3 | 0.235 | 0.942 | 0.975 | 1.08 | 0.855 | 0.99 | 0.65 | 0.649 | 0.576 | 0.582 | 0.699 | 0.443 | 0.52 | 0.445 | 0.485 | 0.484
8 | COR-L 105 | 0.429 | 0.423 | 0.387 | 0.349 | 0.412 | 0.717 | 0.514 | 0.703 | 0.792 | 0.73 | 0.613 | 0.887 | 0.905 | 0.814 | 0.711 | 0.656 | 0.727 | 0.879 | 0.828 | 0.931
9 | Calu-6 | – | – | – | – | – | 0.923 | 0.963 | 1.01 | 1.07 | 0.982 | 0.781 | 0.744 | 0.758 | 0.704 | 0.781 | – | – | – | – | –
10 | ChaGo-K-1 | 0.888 | 0.69 | 0.971 | 0.917 | 0.947 | 1.12 | 0.928 | 0.957 | 0.896 | 0.604 | 1.02 | 0.613 | 1.12 | 1.07 | 1.02 | 0.67 | 0.775 | 0.706 | 0.802 | 0.794
11 | EBC-1 | – | – | – | – | – | 0.616 | 0.614 | 0.589 | 0.53 | 0.526 | 0.17 | 0.217 | 0.21 | 0.178 | 0.171 | – | – | – | – | –
12 | EKVX | 0.384 | 0.428 | 0.342 | 0.381 | 0.405 | 0.993 | 1.06 | 1.27 | 0.959 | 1.07 | 0.933 | 0.905 | 0.975 | 0.833 | 0.898 | 0.701 | – | 0.921 | 0.691 | 0.728
13 | EMC-BAC-2 | 0.496 | 0.568 | 0.54 | 0.498 | 0.384 | 1.05 | 1 | 1.14 | 1.08 | 1.01 | 0.733 | 0.767 | 0.76 | 0.661 | 0.763 | 0.707 | 0.591 | 0.316 | 0.366 | 0.413
14 | EPLC-272H | 0.327 | 0.25 | 0.349 | 0.344 | 0.292 | 0.96 | 0.816 | 0.957 | 0.841 | 0.861 | 1.12 | 1.09 | 1.12 | 0.782 | 1.13 | 0.531 | 0.395 | 0.261 | 0.5 | 0.578
15 | H3255 | 0.328 | 0.342 | 0.314 | 0.318 | 0.307 | 0.712 | – | 0.712 | 0.439 | 0.69 | 0.851 | 0.929 | 0.746 | 0.916 | 0.886 | 0.793 | – | 0.77 | – | 0.795
16 | HARA | 0.27 | 0.261 | 0.241 | 0.213 | 0.238 | 1.15 | 1.05 | 1.13 | 1.08 | 0.978 | 0.973 | 1.06 | 1.09 | 1.01 | 1.21 | 0.63 | 0.51 | 0.669 | 0.598 | 0.593
17 | HCC-15 | 0.708 | 0.715 | 0.71 | 0.725 | 0.657 | 1.01 | 0.997 | 1.04 | 1.08 | 1.06 | 0.822 | 0.897 | 0.817 | 0.747 | 0.716 | 0.809 | 0.795 | 0.779 | 0.824 | 0.759
18 | HCC-44 | 0.866 | 0.946 | 1.03 | 0.969 | 0.919 | 0.938 | 0.84 | 0.869 | 0.828 | 0.713 | 0.721 | 0.808 | 0.807 | 0.836 | 0.575 | 1.12 | 1.14 | 1.14 | 1.1 | 1.09
